Kd and binding data for one compound are collected here from PMC5308256 (2017).

Test [1] relates to A12-MB-A12 (FAM/DABCYL-labeled) (DNA, hairpin) AAAAAAAAAAAACATCATAGTCGAGTGTCCAGGGAAAAAAAAAAAA
Kind of test: FAM/DABCYL fluorescence quenching titration. Conditions: 10 mM HEPES pH 7.3; 10 nM DNA; saturation at 0.6 μM coralyne.

Test [2] has as its system label-free A12-MB-A12 (DNA, hairpin) AAAAAAAAAAAACATCATAGTCGAGTGTCCAGGGAAAAAAAAAAAA
Kind of test: SYBR Green I fluorescence enhancement on folding. Conditions: 10 mM HEPES pH 7.3; 0.5 μM DNA; 160 nM SYBR Green I.

The test system of test [3] is FAM-A40-DABCYL (A40) (DNA, hairpin) AAAAAAAAAAAAAAAAAAAAAAAAAAAAAAAAAAAAAAAA
Briefly: FAM/DABCYL fluorescence quenching titration. Conditions: 10 mM HEPES pH 7.3; 10 nM DNA; saturation at 0.6 μM coralyne.

The term Kd denotes the equilibrium constant for the complex coming apart. The compound `COc1cc2cc3c4cc(OC)c(OC)cc4cc[n+]3c(C)c2cc1OC` showed a Kd in test [1] of 0.5 µM. In addition, the binding result in test [2] and in test [3] was “yes” each time.
